The experiment concerns the target NTS1R (Homo sapiens, UniProt P30989). Briefly: Radiochemical association and dissociation of [^3H]13 at membranes of CHO-hNTS1R cells. Format: binding. The following applies: GppNHp. On the procedure:
These experiments were performed in 96-well plates using the same procedure as for radiochemical binding experiments with intact suspended cells, but using cell membranes instead of whole cells. Binding of [^3H]13 to the NTS1R was saturable (Figure 6A). […] To note, in addition to GppNHp, saponin (100 μg/mL) was added to the samples to improve ligand permeabilization into vesicles that are likely to occur in membrane preparations. The association curve of [^3H]13 obtained from experiments with cell membranes (Figure 6B) was considerably different compared to the association curve observed for intact suspended cells (cf. Figure 4C). The biphasic character almost disappeared and with a kon value of 0.13 ± 0.05 nM^–1 min^–1 (calculated value ± propagated error) the association was slower compared to the initial phase found for experiments with intact cells (kon = 0.81 nM^–1 min^–1, cf. Table 3). […]
CHO-hNTS1R cells were grown on 175 cm^2 cell culture dishes (ref 83.3903, Sarstedt) to ca. 90% confluency. […] The protein concentration was determined according to the Bradford method[59] in transparent 96-well plates (Greiner Cellstar 655180, Greiner Bio-One, Frickenhausen, Germany) using bovine serum albumin as standard. […]

NTS1R, sequence (P30989 whole entry): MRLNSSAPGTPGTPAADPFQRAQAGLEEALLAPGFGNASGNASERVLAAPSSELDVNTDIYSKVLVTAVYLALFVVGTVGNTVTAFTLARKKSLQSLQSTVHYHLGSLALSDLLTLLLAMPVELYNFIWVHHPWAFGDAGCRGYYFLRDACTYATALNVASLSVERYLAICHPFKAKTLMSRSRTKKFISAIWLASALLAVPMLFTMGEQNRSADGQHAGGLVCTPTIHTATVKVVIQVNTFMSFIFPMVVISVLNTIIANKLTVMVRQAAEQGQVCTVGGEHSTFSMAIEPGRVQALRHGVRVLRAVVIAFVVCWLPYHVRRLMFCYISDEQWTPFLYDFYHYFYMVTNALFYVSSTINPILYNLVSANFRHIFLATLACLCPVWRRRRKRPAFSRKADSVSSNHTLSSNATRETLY

As to `CCC(=O)NCCCCNC(=O)NC(=N)NCCC[C@H](NC(=O)[C@@H]1CCCN1C(=O)[C@@H](NC(=O)CCc1cn(CCCNC(=O)c2ccc(-c3c4ccc(=[N+](C)C)cc-4oc4cc(N(C)C)ccc34)c(C(=O)[O-])c2)nn1)C1CCNCC1)C(=O)N[C@@H](CCCNC(=N)N)C(=O)N1CCC[C@H]1C(=O)N[C@@H](Cc1ccc(O)cc1)C(=O)N[C@H](C(=O)N[C@@H](CC(C)C)C(=O)O)[C@@H](C)CC` [[^3H]13], the dissociation rate constant (koff) (usually a measure of how fast the partners let go of each other) (23 °C) is 0.00617 s⁻¹. Moreover, where the note is “calculated value ± propagated error”, the on-rate constant (kon) (as a rule, the second-order rate constant of association) is 2.17e+06 M⁻¹ s⁻¹.
